Results taken from paper PMC2065875, “A Point Mutation in a Herpesvirus Polymerase Determines Neuropathogenicity” (PLoS Pathogens, 2007).
pIC50: −log10 of the molar value.

How the values were obtained:
[1] = target: T1, EHV-1 Pol D752 + pORF18 (viral DNA polymerase holoenzyme) (Equine herpesvirus type 1 (strain AB4P), UniProt P28858); test: [3H]dTTP incorporation into poly(dA)-oligo(dT), in vitro translated Pol; assay type: biochemical; conditions: poly(dA)-oligo(dT) template, 4 μl translated Pol plus 200 fmol pORF18 in 20 μl, 0.5% DMSO
T1 construct: gene 30; Pol (D752) from pTM1-ORF30 made by in vitro transcription-translation (TNT T7 coupled reticulocyte lysate, not purified); pORF18 purified, baculovirus-expressed; with DNA polymerase processivity factor

[2] = target: T2, EHV-1 Pol D752 + pORF18 (viral DNA polymerase holoenzyme) (Equine herpesvirus type 1 (strain AB4P), UniProt P28858, D752N); conditions: poly(dA)-oligo(dT) template, [3H]dTTP; 4 μl translated Pol plus 200 fmol pORF18 in 20 μl; 0.5% DMSO
T2 construct: gene 30
T2 sequence (P28858 whole entry, stated change not applied): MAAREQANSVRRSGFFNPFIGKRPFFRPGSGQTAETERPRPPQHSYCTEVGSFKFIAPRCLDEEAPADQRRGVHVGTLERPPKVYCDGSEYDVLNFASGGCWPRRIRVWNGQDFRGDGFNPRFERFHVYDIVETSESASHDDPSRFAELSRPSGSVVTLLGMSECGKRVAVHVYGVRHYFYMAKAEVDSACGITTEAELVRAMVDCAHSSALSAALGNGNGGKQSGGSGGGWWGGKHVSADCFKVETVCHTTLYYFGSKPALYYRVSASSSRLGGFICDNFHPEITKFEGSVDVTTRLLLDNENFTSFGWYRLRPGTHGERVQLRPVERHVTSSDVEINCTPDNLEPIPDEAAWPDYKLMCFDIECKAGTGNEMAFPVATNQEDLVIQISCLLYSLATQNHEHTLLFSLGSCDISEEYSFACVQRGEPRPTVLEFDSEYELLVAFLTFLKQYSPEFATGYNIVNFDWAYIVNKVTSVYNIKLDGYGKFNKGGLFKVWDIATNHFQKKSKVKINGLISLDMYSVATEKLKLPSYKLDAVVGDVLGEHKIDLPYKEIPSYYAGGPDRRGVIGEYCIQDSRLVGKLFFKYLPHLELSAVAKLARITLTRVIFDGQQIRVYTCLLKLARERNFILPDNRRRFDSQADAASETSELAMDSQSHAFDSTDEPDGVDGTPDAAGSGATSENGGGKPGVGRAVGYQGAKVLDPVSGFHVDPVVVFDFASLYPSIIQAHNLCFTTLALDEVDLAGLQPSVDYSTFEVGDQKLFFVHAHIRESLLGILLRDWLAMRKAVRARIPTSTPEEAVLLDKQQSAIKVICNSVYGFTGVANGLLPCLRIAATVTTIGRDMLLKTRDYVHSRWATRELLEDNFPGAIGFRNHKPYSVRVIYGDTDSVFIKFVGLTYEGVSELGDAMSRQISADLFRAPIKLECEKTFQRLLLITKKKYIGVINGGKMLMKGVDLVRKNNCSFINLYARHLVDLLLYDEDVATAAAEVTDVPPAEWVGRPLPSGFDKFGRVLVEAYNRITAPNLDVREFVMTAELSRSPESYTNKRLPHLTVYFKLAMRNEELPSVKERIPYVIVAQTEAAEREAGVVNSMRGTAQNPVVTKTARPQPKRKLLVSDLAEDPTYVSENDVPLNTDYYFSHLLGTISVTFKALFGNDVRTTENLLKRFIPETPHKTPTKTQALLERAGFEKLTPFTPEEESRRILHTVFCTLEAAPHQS
T2 sequence (P28958 whole entry, stated change not applied, further chain): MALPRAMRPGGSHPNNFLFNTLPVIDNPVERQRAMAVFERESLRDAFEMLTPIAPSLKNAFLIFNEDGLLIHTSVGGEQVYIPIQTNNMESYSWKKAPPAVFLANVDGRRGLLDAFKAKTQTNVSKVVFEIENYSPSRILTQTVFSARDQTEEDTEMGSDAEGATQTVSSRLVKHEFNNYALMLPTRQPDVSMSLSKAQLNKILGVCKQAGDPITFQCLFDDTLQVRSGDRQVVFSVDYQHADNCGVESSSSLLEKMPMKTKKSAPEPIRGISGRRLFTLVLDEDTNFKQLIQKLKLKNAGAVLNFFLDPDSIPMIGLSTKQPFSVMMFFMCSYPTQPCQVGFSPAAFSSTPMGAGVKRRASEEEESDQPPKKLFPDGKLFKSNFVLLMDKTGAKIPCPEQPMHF

T1 sequence (P28958 whole entry): as the sequence (P28958 whole entry, stated change not applied, further chain) above
T1 sequence (P28858 whole entry): as the sequence (P28858 whole entry, stated change not applied) above

Substance: aphidicolin
- pIC50 [1]: 5.51
- pIC50 [2]: 6.05
